According to PMC2566891 (Nucleic Acids Research, 2008):

System: 14-3-3
Test: Binding of p53 peptides to 14-3-3, isoform not given
Conditions: isoform not specified; wild-type p53CT tested up to 200 µM; pS392 by AUC

- binding to 14-3-3 (in words): very weak binding
Substance: WT TC (293–393): wild-type tetramerization plus C-terminal domains of p53 (293–393), semi-synthetic
